“Also recorded” adds a separate entry of the source.
Key:
[1] = Metabolic stability, dog; assay type: in vitro ADME; conditions: Test conc: 2.5 µM
Source text: Table 1 Physicochemical and in Vitro ADME Properties of DF2726A. | column: DF2726A

[2] = molecular target: T1, human COX1 (Homo sapiens, UniProt P23219); assay: COX1 assay, PGE2 formation from arachidonic acid, recombinant enzyme; assay type: biochemical
T1 construct: host or cells: Sf-9
Description: Protein binding in human, dog and rat plasma […]
in DMSO at a final concentration of 2 mM. […]
plasma to obtain a final concentration of 10 µM. Human, dog and rat plasma (200 µL) in triplicate […]
vials for LC-MS/MS analysis. […]
mM Tris-HCl (pH 8.0), 1.98 mM phenol and 1.02 µM hematine. Thereafter, the reaction was initiated by adding 4 µM (COX1) or 2 µM (COX2) of arachidonic acid and the mixture was incubated for 5 min at RT. For basal control measurements, arachidonic acid was omitted from the reaction mixture. Following incubation, t he reaction was stopped by the addition of 1 M HCl then 1 M Tris/HCl (pH 8.0) followed by cooling to 4°C.
The fluorescence acceptor (d2 labeled PGE2) and the fluorescence donor (anti -PGE2 antibody labeled with europium Cryptate) were then added. After 120 min, the fluorescence transfer corresponding to the amount of residual PGE2 was measured at λex=337 nm, λem=620 nm and λem=665 nm using a microplate reader (Envision, Perkin Elmer). The enzyme activity was determined by dividing the signal measured at 665 nm by that measured at 620 nm (ratio). The results were expressed as a percent age inhibition of the control enzyme activity. The standard inhibitory reference compound was Diclofenac, which was tested in each experiment at several concentrations to obtain an inhibition curve from which its IC50 value was calculated. […]

[3] = tested on: GFAP; assay: Western blot of DRG of oxaliplatin rats, astrocyte marker GFAP; assay type: in vivo, male Wistar rats; conditions: 30 mg/kg os; p < 0.01 vs OXA rats
Description: Animals were sacrificed and dorsal root ganglia (DRG) (L4-L6) were removed and stored at […]. They were homogenized on ice-cold lysis buffer [20 mM Tris–HCl (pH 7.5), 10 mM NaF, 150 mM NaCl, 1% Nonidet P-40, 1 mM phenylmethylsulfonyl fluoride, 1 mM Na3VO4, leupeptin and trypsin inhibitor 10 μg/mL; 20 µl/sample, as previously described.
After 1 h, tissue lysates were obtained by centrifugation at 20,000 g for 15 min at 4 °C. Protein concentrations were estimated by the Bio-Rad protein assay using bovine serum albumin as standard.
DRG lysate proteins (30 μg) were dissolved in Laemmli sample buffer, boiled for 5 min, and separated on SDS-polyacrylamide gel elctrophoresis and transferred onto nitrocellulose membrane (240 mA for 40 min at room temperature). […] The protein bands were scanned and densitometrically analyzed with a model GS-700 imaging densitometer (Bio-Rad Laboratories, Milan, Italy). […]

[4] = tested on: IENFs (PGP9.5); assay: Oxaliplatin-induced loss of IENFs, PGP9.5 immunofluorescence of paw sections; assay type: in vivo, male Wistar rats; conditions: 30 mg/kg os, rat paw sections
Description: Animals were sacrificed and a biopsy (3 mm) was taken from pad of the right hind paw. Biopsies were immediately placed in Zamboni’s fixative, where they were left at 4 °C. Tissues were then transferred to 20% sucrose for at least 24 h and used for immunohistochemistry analysis. Specimens were frozen in Optimal Cutting Temperature compound (OCT, Sakura Finetek Inc, CA, USA) and sliced into 20 μm thick serial coronal sections by cryostat AMES LAB-TEK (Westmont, Illinois, USA). […]
Five slices were examined for each animal. For each slide, 4 fields were counted. For quantitative evaluation of IL-8/CINC-1 (the homolog of IL-8 in rat) and […], photomicrographs for each condition were analysed by ImageJ software (National Institutes of Health, Bethesda, MD, USA) as previously described. […] The signal was first measured on the tissue in an area devoid of signal at visual inspection and assumed as background; the threshold was then set at 1.5 times the background and the surface area and mean grey intensity were measured for all areas above the threshold. […]

T1 sequence (P23219 24-599): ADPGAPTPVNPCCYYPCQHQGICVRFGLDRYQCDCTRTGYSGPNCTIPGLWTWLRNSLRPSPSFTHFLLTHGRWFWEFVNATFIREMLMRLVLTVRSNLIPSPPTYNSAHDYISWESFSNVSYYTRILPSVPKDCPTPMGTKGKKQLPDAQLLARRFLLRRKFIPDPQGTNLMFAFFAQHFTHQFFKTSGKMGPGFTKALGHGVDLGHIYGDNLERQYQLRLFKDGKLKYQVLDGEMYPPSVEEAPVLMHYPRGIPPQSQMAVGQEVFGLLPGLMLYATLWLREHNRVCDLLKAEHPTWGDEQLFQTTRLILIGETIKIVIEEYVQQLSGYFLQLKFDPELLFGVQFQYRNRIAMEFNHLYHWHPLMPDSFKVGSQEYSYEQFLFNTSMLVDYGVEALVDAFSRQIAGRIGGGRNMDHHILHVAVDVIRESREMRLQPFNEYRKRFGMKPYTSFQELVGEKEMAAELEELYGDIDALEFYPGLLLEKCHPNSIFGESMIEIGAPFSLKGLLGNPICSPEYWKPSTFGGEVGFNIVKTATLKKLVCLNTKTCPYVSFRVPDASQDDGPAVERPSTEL

## CC(C)(C(=O)O)c1ccc(Nc2nc(C(F)(F)F)cs2)cc1 [DF2726A]
[1]
  Metabolic stability dog: 7.2 µL/min/10^6 cells
[2]
  COX 1 Inhibition (50 µM): did not inhibit; also recorded: No Inhibition observed
[3]
  GFAP expression in DRG of oxaliplatin rats: significantly reduced the expression
[4]
  Effect on oxaliplatin-induced loss of IENFs (PGP9.5): preventing the loss of epidermal innervation

Source: article PMC6692352, “DF2726A, a new IL-8 signalling inhibitor, is able to counteract chemotherapy-induced neuropathic pain” (Scientific Reports, 2019)
